Values of other authors as cited in patent US12239625B2, “Modified release gamma-hydroxybutyrate formulations having improved pharmacokinetics” (Flamel Ireland Limited, priority 2016, dated 2025).
Like-named read-outs stand apart in the source and are kept apart here.

Legend:
[1] = single oral dose 25 mg/kg
CYP1A2 = target: T1, CYP1A2 (Homo sapiens, UniProt P05177); conditions: up to 3 mM (378 mcg/mL)
T1 sequence (P05177 1-516): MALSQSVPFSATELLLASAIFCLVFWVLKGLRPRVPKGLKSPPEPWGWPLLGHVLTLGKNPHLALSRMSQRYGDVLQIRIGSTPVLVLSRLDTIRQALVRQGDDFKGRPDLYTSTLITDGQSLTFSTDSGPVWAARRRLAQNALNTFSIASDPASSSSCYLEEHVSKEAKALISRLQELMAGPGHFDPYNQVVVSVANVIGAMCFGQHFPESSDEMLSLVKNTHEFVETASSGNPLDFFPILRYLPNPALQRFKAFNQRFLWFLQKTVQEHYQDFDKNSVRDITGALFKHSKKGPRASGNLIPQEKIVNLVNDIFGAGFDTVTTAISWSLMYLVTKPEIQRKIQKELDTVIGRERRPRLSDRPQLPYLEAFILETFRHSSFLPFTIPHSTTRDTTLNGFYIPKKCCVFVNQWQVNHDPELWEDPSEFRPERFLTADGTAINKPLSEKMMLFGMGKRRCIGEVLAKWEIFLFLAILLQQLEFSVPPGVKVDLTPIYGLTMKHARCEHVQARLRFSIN

CYP2C9 = CYP2C9 (Homo sapiens, UniProt P11712); conditions: up to 3 mM (378 mcg/mL)
CYP2C19 = CYP2C19 (Homo sapiens, UniProt P33261); conditions: up to 3 mM (378 mcg/mL)
CYP2D6 = CYP2D6 (Homo sapiens, UniProt P10635); conditions: up to 3 mM (378 mcg/mL)
CYP2E1 = CYP2E1 (Homo sapiens, UniProt P05181); conditions: up to 3 mM (378 mcg/mL)
CYP3A = conditions: up to 3 mM (378 mcg/mL)
[2] = 6 g per day as two 3 g doses; ibuprofen 800 mg four times per day
patients with narcolepsy = conditions: estimated dose of 150 g
rats [3] = system: rats
bacterial gene mutation = conditions: in vitro
mammalian cells = conditions: in vitro
rat [4] = conditions: in vivo
male and female rats = conditions: oral 150, 350, or 1,000 mg/kg/day prior to and throughout mating
rats [5] = system: rats; remark: listed apart in the source
plasma proteins = conditions: GHB concentrations 3 mcg/mL to 300 mcg/mL
mouse = conditions: 2-year study
rat [6] = conditions: 2-year study

Chain of CYP2C9 (P11712 whole entry): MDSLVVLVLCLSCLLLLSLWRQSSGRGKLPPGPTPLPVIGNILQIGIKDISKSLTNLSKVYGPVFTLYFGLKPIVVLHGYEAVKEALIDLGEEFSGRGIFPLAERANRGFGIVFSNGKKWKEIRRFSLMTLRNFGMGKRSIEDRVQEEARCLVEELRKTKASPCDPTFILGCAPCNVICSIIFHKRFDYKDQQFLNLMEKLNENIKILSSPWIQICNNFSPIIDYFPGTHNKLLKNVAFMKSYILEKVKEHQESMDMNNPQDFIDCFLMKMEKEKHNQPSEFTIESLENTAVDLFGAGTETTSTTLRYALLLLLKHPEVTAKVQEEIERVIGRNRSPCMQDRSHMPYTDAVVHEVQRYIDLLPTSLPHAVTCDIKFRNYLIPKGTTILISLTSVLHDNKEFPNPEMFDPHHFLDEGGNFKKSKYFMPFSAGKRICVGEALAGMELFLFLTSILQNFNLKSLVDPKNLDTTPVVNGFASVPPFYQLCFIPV
Chain of CYP2E1 (P05181 whole entry): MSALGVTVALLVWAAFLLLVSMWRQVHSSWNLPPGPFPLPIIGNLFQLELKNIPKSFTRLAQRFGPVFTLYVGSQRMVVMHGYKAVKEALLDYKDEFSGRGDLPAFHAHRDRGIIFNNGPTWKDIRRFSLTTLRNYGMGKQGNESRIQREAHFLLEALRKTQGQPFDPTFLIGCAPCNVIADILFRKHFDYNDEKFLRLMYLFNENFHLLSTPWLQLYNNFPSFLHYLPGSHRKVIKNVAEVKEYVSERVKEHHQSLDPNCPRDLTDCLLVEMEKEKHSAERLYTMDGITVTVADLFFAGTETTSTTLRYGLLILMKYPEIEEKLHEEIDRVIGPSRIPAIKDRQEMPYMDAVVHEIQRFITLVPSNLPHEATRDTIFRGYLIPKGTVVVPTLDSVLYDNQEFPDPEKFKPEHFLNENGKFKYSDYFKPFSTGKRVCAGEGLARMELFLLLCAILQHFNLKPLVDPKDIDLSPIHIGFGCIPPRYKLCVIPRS
Chain of CYP2D6 (P10635 whole entry): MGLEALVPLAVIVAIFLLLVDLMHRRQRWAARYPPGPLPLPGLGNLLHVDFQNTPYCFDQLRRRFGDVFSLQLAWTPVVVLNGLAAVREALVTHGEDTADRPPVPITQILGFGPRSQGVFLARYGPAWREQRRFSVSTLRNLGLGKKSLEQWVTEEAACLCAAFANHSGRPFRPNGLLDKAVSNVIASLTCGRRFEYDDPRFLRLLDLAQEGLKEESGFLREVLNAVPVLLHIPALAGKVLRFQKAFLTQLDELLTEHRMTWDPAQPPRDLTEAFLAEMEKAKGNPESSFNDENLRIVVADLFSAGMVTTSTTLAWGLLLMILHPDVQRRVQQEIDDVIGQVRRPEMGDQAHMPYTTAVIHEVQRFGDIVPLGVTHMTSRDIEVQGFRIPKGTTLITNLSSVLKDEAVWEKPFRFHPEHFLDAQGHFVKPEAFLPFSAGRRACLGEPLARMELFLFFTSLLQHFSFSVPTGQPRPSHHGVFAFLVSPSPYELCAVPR
Chain of CYP2C19 (P33261 whole entry): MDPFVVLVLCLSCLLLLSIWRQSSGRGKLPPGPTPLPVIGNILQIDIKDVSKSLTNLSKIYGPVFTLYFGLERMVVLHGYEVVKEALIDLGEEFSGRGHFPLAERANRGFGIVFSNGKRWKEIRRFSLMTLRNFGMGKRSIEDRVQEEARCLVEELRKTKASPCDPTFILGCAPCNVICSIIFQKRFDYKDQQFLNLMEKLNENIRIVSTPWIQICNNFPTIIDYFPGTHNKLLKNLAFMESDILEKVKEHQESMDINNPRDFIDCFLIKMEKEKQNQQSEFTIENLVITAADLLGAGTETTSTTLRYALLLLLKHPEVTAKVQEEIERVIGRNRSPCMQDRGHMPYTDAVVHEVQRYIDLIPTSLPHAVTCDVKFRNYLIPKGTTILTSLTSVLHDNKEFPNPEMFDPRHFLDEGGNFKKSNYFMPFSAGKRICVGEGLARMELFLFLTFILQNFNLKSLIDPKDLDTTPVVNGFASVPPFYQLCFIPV

## O=C([O-])CCCO.[Na+] [sodium oxybate, sodium 4-hydroxybutyrate]
18 female and 18 male healthy adults, oral dose 4.5 g
  Gender differences in the pharmacokinetics of GHB: no gender differences
[1]; Class A
  Mean elimination half-life: 32 min
[1]; Class C
  Mean elimination half-life: 59 min
[1]; control patients
  Mean elimination half-life: 22 min
CYP1A2
  Inhibition of CYP1A2 activity: does not significantly inhibit
CYP2C9
  Inhibition of CYP2C9 activity: does not significantly inhibit
CYP2C19
  Inhibition of CYP2C19 activity: does not significantly inhibit
CYP2D6
  Inhibition of CYP2D6 activity: does not significantly inhibit
CYP2E1
  Inhibition of CYP2E1 activity: does not significantly inhibit
CYP3A
  Inhibition of CYP3A activity: does not significantly inhibit
[2]
  Systemic exposure to GHB on co-administration with ibuprofen: comparable systemic exposure to GHB
Patients with narcolepsy
  Overdose case: unresponsive with brief periods of apnea
Pregnant rats; oral 150, 350, or 1,000 mg/kg/day throughout organogenesis
  Developmental toxicity: no clear evidence of developmental toxicity
Pregnant rats; rats
  Highest dose tested as multiple of the MRHD (9 g per night) on mg/m2 basis: approximately 1 times
Pregnant rabbits; oral 300, 600, or 1,200 mg/kg/day throughout organogenesis
  Developmental toxicity: no clear evidence of developmental toxicity
Pregnant rabbits; rabbits
  Highest dose tested as multiple of the MRHD (9 g per night) on mg/m2 basis: ~3 times
Rats [3]; oral doses up to 1,000 mg/kg/day for 83 (males) or 104 (females) weeks
  Tumors: no increase in tumors
Rats [3]; rats
  Plasma exposure (AUC) at the highest dose tested as multiple of that in humans at the MRHD: 2 times
Bacterial gene mutation
  Bacterial gene mutation: negative
Mammalian cells
  Chromosomal aberration: negative
Rat [4]
  Micronucleus: negative
Male and female rats
  Effects on fertility: no adverse effects on fertility
Rats [5]; at the highest dose tested (900 mg/kg/day)
  Body weight gain and sexual maturation: Reduced body weight gain in males and females and delayed sexual maturation in males
Rats [5]; oral 0, 100, 300, or 900 mg/kg/day, postnatal days 21 through 90
  Mortality: mortality was observed at the two highest closes tested

## O=C(O)CCCO [GHB, gamma-hydroxybutyrate]
After oral administration of sodium oxybate
  Excretion in human milk: excreted in human milk
human, in vivo
  Apparent volume of distribution: 0.19 to 0.384 L/kg
  Elimination half-life: 30 to 60 min
Within 6 to 8 hours after dosing
  Unchanged drug in human urine: less than 5%
Plasma proteins
  Bound to plasma proteins: less than 1%

## O=C1CCCO1 [gamma-butyrolactone]
mouse
  Carcinogenic activity: no clear evidence of carcinogenic activity
Rat [6]
  Carcinogenic activity: no clear evidence of carcinogenic activity
